Results on four molecules are retold here after patent US9315481B2, “Compounds and methods for treating leukemia” (INDIANA UNIVERSITY RESEARCH AND TECHNOLOGY CORPORATION, priority 2012, dated 2016).

Entries after “also recorded” stand apart in the source; their conditions may differ.

The nature of data set [1]: Maximum tolerated dose (MTD). Conditions: in vivo, po. The source says:
Maximum tolerated dose (MTD). […] Animals were monitored for up to 14 days after termination of dosing.

A further data set has as its system TAIL7 cells. The data set can be described thus: standard cell survival assay (ATP assay) of TAIL7 cells. In kind it is cell-based. As to conditions: Homo sapiens, 96 h. The text has this: The compounds described herein decrease survival of leukemia cells.
The test system of another data set is STAT3. The data set can be described thus: activation status of signaling pathways in T-ALL. It counts as cell-based. As to the method:
Western blot analysis. For whole cell lysates, cells are harvested, lysed in RIPA buffer (Santa Cruz Biotechnology; Santa Cruz, Calif.), and protein is quantified and electrophoresed. Nuclear and cytoplasmic extracts are isolated using a conventional method (See, Jackson, (2006)). Immunoblotting is performed using the following antibodies: APE1 (Novus Biologicals; Littleton, Colo.), STAT1, STAT3, STAT5, p-STAT1(Y701), p-STAT3(Y705), p-STAT5 (Y694) (Cell Signaling; Danvers, Mass.), and tubulin (Sigma Aldrich) or GAPDH (Santa Cruz).
Biochemistry. […] That result is in contrast to what is observed with other compounds such as PI3K/Akt or mTOR.

A further data set has as its system STAT3, AP-1, and NF-κB. The data set can be described thus: DNA binding and transcriptional activity of the target TFs of Ref-1. In kind it is biochemical. Conditions: STAT3, AP-1, NF-κB. The protocol:
Electrophoretic mobility shift assay (EMSA). […] For the experiment of APE1 interacting with STAT3, purified APE1 protein is reduced with 2 mM DTT (dithiothreitol) for 10 min and diluted to a final concentration of 4 mg with 0.4 mM DTT in PBS. Reduced APE1 is added to 15 mg nuclear extract as above. The final concentration of DTT in redox reactions is 0.04 mM.

A further data set concerns refractory T-ALL cells. The experiment in a line: xenograft model of leukemia. Conditions: b.i.d., one cycle of 5 days; for circulating blasts (human CD45+ cells in peripheral blood): p<0.05 vs vehicle. In kind it is in vivo, NSG mice. The protocol: Xenograft models of childhood relapse, refractory ALL. The antileukemia efficacy of Ref-1 redox blockade by the compounds described herein is evaluated in xenograft models of human ALL. In a first phase, the xenograft model with TAIL7 cells is used to test the therapeutic efficacy of the test compound as monotherapy, and in dual-agent regimens combining test compound with agents used as frontline chemotherapy for T-ALL (Vincristine; Doxorubicin; Dexamethasone) and for relapse T-ALL (Methotrexate). […] Such models of childhood ALL are used in immunodeficient mice (NOD/SCID: terminal leukemia in 70-120 d; NSG: terminal leukemia in 28-35 days with TAIL7 cells), including specimens from relapsed and infant ALL.
Xenografts of pediatric relapse T-cell leukemia: TAIL7 cells or cells from patients with relapse T-ALL (high cellularity; ≧90% BM involvement) will be used for the xenografts; patient specimens will be provided by Dr. Batra, according with IRB regulations. Leukemia cells (1×10^6 TAIL7 cells; 2-3×10^6 patient cells/mice) will be transplanted IV into NSG mice (7-9 wk old). 19, 24 Mice will be monitored weekly for presence of human blasts in the PB, by flow cytometry.
NSG mice (n=5/group) transplanted with refractory T-ALL cells. […] At the end of treatment, frequency of human CD45+ cells was performed in the peripheral blood (PB) and in the bone marrow (BM). Animals are sacrificed for analysis.

The target in another data set is Ref-1 (Homo sapiens, UniProt P27695). The experiment in a line: conventional redox EMSA assay. In kind it is biochemical. The text has this: (§1) Biochemistry 50, 82-92 (2011). Nyland et al., Design and Synthesis of Novel Quinone Inhibitors Targeted to the Redox Function of Apurinic/Apyrimidinic Endonuclease 1/Redox Enhancing Factor-1 (Ape1/Ref-1). J Med Chem 53, 1200-1210 (2010). Kelley et al., Cancer Drug Discovery and Development (ed Rebecca G. Bagley) Springer (part of Springer Science+Business Media), 2010. Luo et al., Role of the multifunctional DNA repair and redox signaling protein Ape1/Ref-1 in cancer and endothelial cells: Small molecule inhibition of Ape1's redox function. Antioxid Redox Signal 10, 1853-1867 (2008). Georgiadis et al., Evolution of the redox function in mammalian Apurinic/apyrimidinic Mutation Research 643, 54-63 (2008).
Sequence of Ref-1 (P27695 whole entry): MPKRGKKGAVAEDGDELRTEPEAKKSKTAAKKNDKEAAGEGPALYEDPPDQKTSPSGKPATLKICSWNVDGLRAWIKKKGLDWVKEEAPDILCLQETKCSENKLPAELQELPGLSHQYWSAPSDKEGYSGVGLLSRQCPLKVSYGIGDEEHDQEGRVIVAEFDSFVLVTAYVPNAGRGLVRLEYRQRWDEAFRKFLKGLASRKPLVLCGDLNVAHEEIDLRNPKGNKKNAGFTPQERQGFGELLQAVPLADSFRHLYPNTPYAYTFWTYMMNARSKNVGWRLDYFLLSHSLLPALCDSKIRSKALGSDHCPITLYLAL
Electrophoretic mobility shift assay (EMSA). EMSAs are performed as previously described (Georgiadis, (2008) #15789) with the some modifications. Briefly, for super-shift assay, 6 μg STAT3 antibody (Santa Cruz Biotechnology, Inc, Santa Cruz, Calif.) is pre-incubated with 15 mg nuclear extract from PaCa-2 cells (treated with 50 ng/mL IL-6 for 2 hrs in 2% serum), followed by 1 μg/mL poly(dI-dC).poly(dI-dC) (Amersham Biosciences, Piscataway, N.J.) and 0.1 pmol 5′HEX-labeled double-stranded oligonucleotide DNA (Midland Certified Reagent Company, Midland, Tex.) containing the STAT3 direct repeat consensus sequence for 15 min (Preston, (2005)). For the experiment of APE1 interacting with STAT3, purified APE1 protein is reduced with 2 mM DTT (dithiothreitol) for 10 min and diluted to a final concentration of 4 mg with 0.4 mM DTT in PBS. Reduced APE1 is added to 15 mg nuclear extract as above. The final concentration of DTT in redox reactions is 0.04 mM.

Data set [2] concerns T-ALL lines from a murine model of T-cell leukemia induced by oncogenic Notch. The data set can be described thus: ATP viability assay of leukemia cells from murine Notch-induced T-ALL. It counts as cell-based. Conditions: Mus musculus, T-ALL lines from mice with terminal Notch-induced disease. The source says:
(§2) The compounds described herein are effective against leukemia cells harvested from the bone marrow (BM), thymus (T) or spleen (S). Cells are harvested from the bone marrow (BM), thymus (T) or spleen (S) of mice with terminal Notch (ICN)-induced T-ALL, as determined in a conventional ATP assay (viability at 96 hrs) of the leukemia cells cultured with IL-7. […] Similar inhibition is observed in immortalized Jurkat, SupT1, MOLT4, and HPB-ALL cell lines derived from relapse T-ALL patients, with IC50s from 10-30 μM. Relapse T-ALL lines (Jurkat, SupT1, MOLT4, and HPB-ALL) are reportedly resistant to treatment with glucocorticoids. The compounds described herein are also effective against TAIL7-Dexamethasone resistant cells, which show reduced sensitivity to inhibitors of other leukemia-associated signaling pathways (such as PI3K/Akt, mTOR), and to cytotoxic chemotherapy drugs.

Data set [3] deals with Jurkat, SupT1, MOLT4, and HPB-ALL cell lines. The experiment in a line: viability of relapse T-ALL cell lines. As to conditions: Homo sapiens; immortalized lines derived from relapse T-ALL patients. It counts as cell-based.
Source text: as §2

The next data set has as its system leukemia cells. The experiment in a line: leukemia cell survival. In kind it is cell-based. As to conditions: primary cells from ALL patients, relapsed T-ALL, cells from murine Notch-induced leukemia. As to the method: as §1, with “The activity of other selective Ref-1 redox inhibitors are analyzed against leukemia cells according to conventional redox EMSA assays. See, Su, D. et al. Interactions of APE1 with a redox inhibitor: Evidence for an alternate conformation of the enzyme. Biochemistry” for “Biochemistry”

The next data set has as its system Survivin and Bcl-xL mRNA. The data set can be described thus: quantitative PCR of survival genes. In kind it is cell-based. Conditions: after 24 h at doses between 25-40 μM. The source says: The compounds described herein caused a substantial downregulation of survival genes regulated by STAT3 and NF-κB, such as Survivin, Bcl-xL, and miR-21.
For data set [4], the system named is T-ALL cells. The data set can be described thus: potentiation of conventional drugs, ATP assay. In kind it is cell-based. As to conditions: fixed dose 20 μM, compared to vehicle. The source says: The compounds described herein potentiate the efficacy of conventional drugs for treating leukemia, such as doxorubicin and STATTIC. […]

The test system of data set [5] is T-ALL cells. The experiment in a line: Annexin V/PI assay of apoptosis. As to conditions: E3330 […] μM or 40 μM, d1 to d5. In kind it is cell-based. The text has this:
The compounds described herein cause apoptosis of leukemia cells, including leukemia T-ALL cells.

In data set [1], `CCCC(=CC1=C(OC)C(=O)c2ccccc2C1=O)C(=O)N(CC)CC` [Example 5c] returned an MTD of more than 250 mg/kg. For the same molecule, the IC50 in the data set on TAIL7 cells amounted to 4.2 µM. In addition, in the data set with STAT3, the “activation status of other signaling pathways involved in T-ALL” value (from here on “activation status”) is reported as “do not affect”; the “phosphorylation state and nuclear translocation of STAT3” value is recorded as “do not affect”. Besides, in the data set with STAT3, AP-1, and NF-κB, the “DNA binding and transcriptional activity of the target TFs of Ref-1” value (shortened to “DNA binding and transcriptional activity”) is given as “disrupt”. For the same molecule, in the data set on refractory T-ALL cells (25 mg/kg/d), the “frequency of CD45+ in the BM” value was “marked decrease” and the “circulating blasts (human CD45+ cells in peripheral blood)” value is “significant reduction”. The concentration for half-maximal inhibition (IC50) at Ref-1 is 1 µM.
Molecule `CCCC(=CC1=C(OC)C(=O)c2ccccc2C1=O)C(=O)N(C)C` [Example 5e] showed an MTD in data set [1] of more than 250 mg/kg. Moreover, 5.5 µM corresponded to half-maximal inhibition in the data set with TAIL7 cells (IC50). Moreover, in the data set with STAT3, the “activation status” value is “do not affect”; the “phosphorylation state and nuclear translocation of STAT3” value is “do not affect”. Moreover, the “DNA binding and transcriptional activity” value in the data set on STAT3, AP-1, and NF-κB is given as “disrupt”. Also, the IC50 on Ref-1 was determined as 2 µM.
Consider `COC1=C(C=C(C)C(=O)N(C)C)C(=O)c2ccccc2C1=O` [Example 5a], for which the MTD in data set [1] was more than 250 mg/kg. The IC50 worked out at 5.5 µM in the data set with TAIL7 cells and 1 µM at Ref-1. Besides, the “activation status” value with STAT3 is reported as “do not affect”. Further, in the data set on STAT3, the “phosphorylation state and nuclear translocation of STAT3” value is “do not affect”. For the same molecule, in the data set with STAT3, AP-1, and NF-κB, the “DNA binding and transcriptional activity” value was “disrupt”.
As for `CCCCCCCCC/C(=C\C1=C(C)C(=O)C(OC)=C(OC)C1=O)C(=O)O` [Example E3330], the IC50 in [2] fell in the range of 20 to 30 µM. Moreover, the IC50 in data set [3] was 10 to 30 µM. For the same molecule, in data set [1], the MTD is more than 250 mg/kg. The leukemia cell survival result with leukemia cells is given as “markedly inhibits”. For the same molecule, the “reduction in Survivin and Bcl-xL mRNA” value in the data set with Survivin and Bcl-xL mRNA is recorded as 2-10 fold. This molecule registered an IC50 with TAIL7 cells of 29.7 µM. For the same molecule, in the data set with STAT3, the “activation status” value was “do not affect”; the “phosphorylation state and nuclear translocation of STAT3” value is listed as “do not affect”. For the same molecule, the “DNA binding and transcriptional activity” value with STAT3, AP-1, and NF-κB is “disrupt”. Further, in the data set with T-ALL cells [4], the “potentiation of the activity of STATTIC” value was “potentiates” and the “potentiation of the activity of doxorubicin” value is on record as “potentiates”. In addition, in the data set on refractory T-ALL cells (50 mg/kg/d), the “frequency of CD45+ in the BM” value was “marked decrease” and the “circulating blasts (human CD45+ cells in peripheral blood)” value is reported as “significant reduction”. For the same molecule, the leukemia cell apoptosis result in the data set on T-ALL cells [5] was “significant leukemia cell apoptosis; also recorded: induces leukemia cell apoptosis”.
